Assay results reported in publication PMC9950073, “Alleviation of arthritis through prevention of neutrophil extracellular traps by an orally available inhibitor of protein arginine deiminase 4” (Scientific Reports, 2023).

What was measured:
[1] = biological target: T1, human recombinant PAD1 (Homo sapiens, UniProt Q9ULC6); assay: PAD1 selectivity biochemical assay measuring ammonia release; settings: 10 semi-log concentrations, highest concentration tested 30 µM
T1 construct: purchased Cayman Chemicals 10784
T1 sequence (Q9ULC6 1-663): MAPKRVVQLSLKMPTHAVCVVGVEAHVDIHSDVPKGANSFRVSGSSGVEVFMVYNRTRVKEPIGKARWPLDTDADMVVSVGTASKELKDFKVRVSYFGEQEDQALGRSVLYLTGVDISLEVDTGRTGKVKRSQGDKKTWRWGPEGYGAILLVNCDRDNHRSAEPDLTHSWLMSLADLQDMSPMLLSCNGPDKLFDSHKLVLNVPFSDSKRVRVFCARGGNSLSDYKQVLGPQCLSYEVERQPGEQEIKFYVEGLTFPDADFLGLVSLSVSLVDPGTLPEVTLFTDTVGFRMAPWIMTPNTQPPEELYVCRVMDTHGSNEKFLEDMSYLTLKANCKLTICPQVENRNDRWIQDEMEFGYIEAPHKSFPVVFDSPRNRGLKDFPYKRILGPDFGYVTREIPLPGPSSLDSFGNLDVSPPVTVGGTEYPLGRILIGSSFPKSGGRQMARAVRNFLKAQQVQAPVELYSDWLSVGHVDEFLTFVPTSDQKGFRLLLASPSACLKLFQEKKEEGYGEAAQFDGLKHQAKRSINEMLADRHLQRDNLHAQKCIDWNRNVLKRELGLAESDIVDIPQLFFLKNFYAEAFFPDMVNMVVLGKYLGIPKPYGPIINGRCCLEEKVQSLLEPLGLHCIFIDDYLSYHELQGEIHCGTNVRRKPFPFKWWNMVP

[2] = test system: G-CSF-modified collagen-induced arthritis; assay: G-CSF-modified collagen-induced arthritis model; assay type: in vivo, C57BL/6 mice
Procedure: C57BL/6 mice aged 8– 12 weeks were immunized with the emulsion of complete Freund's adjuvant (CFA, catalog number: 7023, Chondrex, Redmond, WA) and 100 μg of chicken type II collagen (catalog number: 20012, Chondrex) in a 1:1 mixture (total 100 μl) subcutaneously into the base of the tail on day 0[18]. The booster immunization of CII with incomplete Freund's adjuvant (catalog number: 7002, Chondrex) was performed on day 21. Recombinant human G-CSF (Filgrastim, Neupogen, Amgen, Inc., Thousand Oaks, CA) was injected at 10 μg peritoneally once daily from day 20 to day 23. Vehicle (water) or 50 mg/kg of JBI-589 was orally administered twice daily from day 20 to day 56. The severity of arthritis was evaluated using the following clinical scoring system for each limb: 0, normal; 1, swelling in one finger joint; 2, swelling in more than one finger joint or wrist or ankle joint; 3, swelling in the entire paw; and 4, deformity and or ankylosis. The maximum score was 16 per mouse. […] At the end of the study, all mice were euthanized after giving anesthesia using 2% isoflurane (Patterson Veterinary, catalog number: 07–893-2374). […]
H&E stain of joint tissue was performed following the previously described method.
Inflammation was scored on a scale of 0 (no inflammation) to 3 (severe inflamed joint) depending on the number of inflammatory cells in the synovial cavity (exudate) and synovial tissue (infiltrate)[39]. […]
Expressions of target proteins in synovial tissue on the joint surface of wrists and ankles were determined by immunoblotting. Synovial tissue was homogenized in radioimmunoprecipitation assay (RIPA) buffer (catalog number: 89901, Thermo Fisher Scientific) with protease inhibitor cocktails (catalog number: R0278, Sigma, St. Louis, MO) on ice. Following centrifugation at 20,000 g for 20 min at 4 °C, the protein content of the supernatant was determined by the Bradford protein assay (catalog number: 5000006, Bio-Rad Laboratories), and an equal amount of protein per sample was used. Protein lysate was resolved on gradient gels (Bolt 4–12% Bis–Tris Plus gels, catalog number: NW04122BOX, Life Technologies) and electroblotted on polyvinylidene difluoride (PVDF) membranes (catalog number: IB401001, Invitrogen) using the iBlot system (Thermo Fisher Scientific). After blocking with 5% BSA TBS-T buffer (0.05% Tween-20 in 1 × TBS) for 1 h at room temperature, the membranes were incubated with primary antibodies against myeloperoxidase (MPO, 1:500, catalog number: A0398, DAKO, Santa Clara, CA) or citrullinated histone H4 (H4Cit, 1: 1,000, catalog number: 07-596, Millipore, Burlington, MA) at 4 °C overnight, and subsequently with goat anti-rabbit IgG (H + L)- HRP (1:10,000, catalog number: 1706515, Bio-Rad) for 2 h at room temperature. Blots were developed with enhanced chemiluminescence substrate (catalog number: 32106, Thermo Fisher Scientific). Equal loading was confirmed by GAPDH (catalog number: G9545-200UL, 1: 10,000, Sigma). The intensity of the bands on blots was quantified using ImageJ software.

[3] = Rat pharmacokinetics; settings: in vivo, dose not given
Description: Supplement 41598_2023_30246_MOESM1_ESM.docx, table 3: Supplementary Table S3. In vivo pharmacokinetic parameters of JBI-589 in mouse and rat | column: Dose; t1/2; Cmax; C0; AUC0-t; AUC0-∞; CL; F

[4] = 50 mg/kg orally twice daily day 20 to day 56

inhibitory activity against PAD1 [1]: did not have any inhibitory activity
AUC(0-inf) ([3]; 2 mg/Kg, IV): 1390 ng·h/mL
AUC(0-t) ([3]; 2 mg/Kg, IV): 1320 ng·h/mL
C0 ([3]; 2 mg/Kg, IV): 451 ng/mL
Cmax ([3]; 2 mg/Kg, IV): 419 ng/mL
Vd ([3]; 2 mg/Kg, IV): 13.2 L/kg
clearance ([3]; 2 mg/Kg, IV): 24.3 mL/min/kg
half-life ([3]; 2 mg/Kg, IV): 6.32 h
AUC(0-inf) ([3]; 10 mg/Kg, PO): 3580 ng·h/mL
AUC(0-t) ([3]; 10 mg/Kg, PO): 3390 ng·h/mL
Cmax ([3]; 10 mg/Kg, PO): 335 ng/mL
bioavailability ([3]; 10 mg/Kg, PO): 51.4%
half-life ([3]; 10 mg/Kg, PO): 5.6 h
Structure (SMILES): Cc1c(-c2cc3ccccc3n2Cc2ccc(F)cc2)nc2cc(C(=O)N3CCC[C@@H](N)C3)ccn12 [JBI-589, (R)-(3-aminopiperidin-1-yl)(2-(1-(4-fluorobenzyl)-1H-indol-2-yl)-3-methylimidazo[1,2-a]pyridin-7-yl)methanone]
effect on arthritis incidence [2, 4]: significant effect
effect on arthritis severity [2, 4]: significant effect
lesions positive for H3Cit and Ly6G and DNA within the joint space and on the bone surface (immunofluorescence) ([2]; ankle joints day 56, present in vehicle-treated mice): not in JBI-589-treated mice
eroded surface of bones (micro-CT) ([2]; ankle joints, vs control mice): fewer areas of eroded surface
plasma levels of H3Cit ([2]; day 22, vs vehicle): lower
serum IL-6 ([2]; day 56, vs vehicle): reduced
serum anti-Collagen Type II (CII) IgG2c antibody level ([2]; day 56, vs vehicle): comparative
serum anti-Collagen Type II (CII) IgG antibody level ([2]; day 56, vs vehicle): comparative
H4Cit in synovial tissue (western blot) ([2]; vs vehicle): less
Myeloperoxidase (MPO) in synovial tissue (western blot) ([2]; vs vehicle): less
inflammation (exudate and infiltrate), H&E staining of ankle joint ([2]; vs vehicle): alleviated severity of arthritis
serum anti-H3Cit antibody ([2]; vs vehicle): less
